According to patent US20250017206A1, “METHODS FOR PREVENTING OR REDUCING BACTERIAL INFECTION OF PLANT SEEDS” (priority 2022, published 2025):
“Also recorded” adds a separate entry of the source.

What was measured:
[1] = tested on: Acidovorax citrulli; assay: A. citrulli growth on LB agar growth medium containing tea, extracts or compounds; assay type: cell-based; conditions: for inhibition of A. citrulli (summary): compound alone in culture
Description: A. citrulli growth on LB agar medium was assessed after treatment with commercial brands of black and green teas and their constituent compounds to determine inhibitory effects. Dried loose tea leaves were boiled in distilled water, strained, and liquid added to LB agar growth medium to assess concentration effects. Five grams of loose-leaf tea was autoclaved in 200 mL distilled water for 25 minutes in the liquid cycle. After autoclaving, the tea was cooled to room temperature and filtered using Whatman #1 filter paper. The filtered tea was adjusted by spectrophotometry (DU 800, Beckman Coulter) to 4.0, 3.0, 2.0, 1.0, and 0.5 at OD390.
Luria Broth (LB) agar growth medium was prepared by mixing 10 grams of tryptone, 5 grams of yeast extract, and 10 grams of sodium chloride, and 15 grams of Bacto™ Agar Solidifying Agent (BD Diagnostics) in 1 liter of distilled water (pH: 7.5) before autoclaving. Collected bacteria were resuspended in autoclave-sterilized 10 mM MgCl2, and adjusted to 1.0, 0.5, 0.1, 0.01, and 0.001 OD600 spectrophotometry.
1 mL of each standard compound was added to 10 mL of LB agar growth medium.
Growth curve on growth medium containing inhibitory extracts and compounds to test whether Acidovorax citrulli could grow in the presence of green and black teas and some of their constituents, growth analysis was conducted in Petri dishes on solid LB agar containing tea or its extracts to quantitate bacterial growth inhibition. We also wanted to see whether tea and its constituents affected antibiotic resistance by comparing growth on both LB agar and Rifampicin containing LB agar. […] For the second stage, effects were verified by blotting 20 μL of inoculum with 9 1:10 serial dilutions to be able to count bacterial colonies. After growth medium solidified, 5 μL of bacterial inoculum adjusted at OD600: to 1.0, 0.5, 0.1, 0.01, or 0.001 (at first stage) and 20 μL of bacterial inoculum adjusted to OD600: 10^0, 10^−1, 10^−2, 10^−3, 10^−4, 10^−5, 10^−6, 10^−7, 10^−8, 10^−9 were blotted on the LB agar growth medium, containing tea samples or other extracts (1:10 mL). The Petri dishes inoculated with bacteria were incubated at 28° C. for 72 h in dark. Autoclaved distilled water was added to growth medium in a separate replicate with 5 μL of 10 mM MgCl2 and bacteria as a negative control. In order to check if additional distilled water affected bacterial growth, growth on LB medium with and without water was compared. Results were compared by colonies. When colonies could not be separated, bacterial growth was scored between 1 and 0 depending on the amount of growth on the surface of the blot.

[2] = tested on: A. citrulli strain AAC00-1; conditions: components of cinnamon oil; Choi et al. (2016); cited from earlier work

O=C(O[C@@H]1Cc2c(O)cc(O)cc2O[C@@H]1c1ccc(O)c(O)c1)c1cc(O)c(O)c(O)c1 [ECG, epicatechin gallate, reference compound]
bacterial growth at 0.5 mM ([1]; 0.5 mM, AA000-1, maximum bacterial concentration OD600 0.01): inhibited bacterial growth
bacterial growth at 1.5 mM ([1]; AAC00-1, 1.5 mM, bacterial OD600 1.0): completely inhibitory; also recorded: inhibited all bacterial growth

Oc1cc(O)c2c(c1)O[C@H](c1cc(O)c(O)c(O)c1)[C@H](O)C2 [EGC, epigallocatechin, reference compound]
bacterial growth at 1 mM EGC ([1]; 1 mM, bacteria OD600 0.1 and 0.01): efficient inhibitor; also recorded: inhibited bacterial growth on 0.1 dilution of bacteria
bacterial growth at 0.5-1-1.5 mM EGC ([1]; AAC00-1 OD600 1.0-0.001, 0.5-1-1.5 mM): did not show inhibitory effects; also recorded: showed no inhibition
minimum concentration required for inhibition ([1]; bacterial concentration OD600 0.001, AAC00-1): 0.5 mM

O=Cc1ccccc1 [benzaldehyde]
antibacterial activities against strain AAC00-1 [2]: exhibited antibacterial activities

Cn1c(=O)c2c(ncn2C)n(C)c1=O [caffeine, reference compound]
inhibition of A. citrulli (summary) [1]: not inhibitory

O=CC=Cc1ccccc1 [cinnamaldehyde]
antibacterial activities against strain AAC00-1 [2]: exhibited antibacterial activities

catechin
bacterial colony growth at 10 mM catechin ([1]; AAC00-1, 0.1, 1, 10 mM compared, only 10 mM inhibitory, with or without rifampicin): inhibitory; also recorded: inhibited bacterial growth
effect of antibiotic presence on bacterial colony growth inhibition by catechin ([1]; AAC00-1, catechin 0.1, 1, 10 mM, with or without rifampicin 100 μg/mL): No difference
bacterial growth at 5-10-15 mM ([1]; AAC00-1 OD600 1.0-0.001, 5-10-15 mM): inhibited all bacterial growth
inhibition of A. citrulli (summary) [1]: strongly inhibitory
bacterial colony growth at 1 mM ([1]; final concentration 1 mM in LB agar with rifampicin 100 μg/mL, M6, AAC00-1, aacI, aacR, OD600 1.0-0.001): inhibited A. citrulli; also recorded: inhibited some lower density colonies of bacteria
bacterial colony growth at 10 mM ([1]; final concentration 10 mM in LB agar with rifampicin 100 μg/mL, M6, AAC00-1, aacI, aacR, OD600 1.0-0.001): inhibited A. citrulli; also recorded: completely inhibited bacterial growth; also recorded: inhibited growth of all bacterial strains
less A. citrulli growth in catechin treatments compared to caffeine treatment ([1]; overall, 3-Way ANOVA, 95% significance level): ~25%
inhibition of A. citrulli compared with black tea and caffeine ([1]; preliminary, data not shown): greater than black tea and caffeine
